According to patent publication US8420621B2, “Methods of using gamma cyclodextrin to control blood glucose and insulin secretion” (Abbott Laboratories, priority 2004, dated 2013):

How the values were obtained:
[1] = system: male fatty Zucker fa/fa rats; test: Meal glucose tolerance test, postprandial glycemic response to a carbohydrate challenge; assay type: in vivo, rat
Excerpt: The objective of the animal study was to evaluate the postprandial glycemic response of male fatty Zucker fa/fa rats to a carbohydrate challenge consisting of gamma-cyclodextrin or maltodextrin.
Twenty male fatty Zucker fa/fa rats were obtained from Harlan (Indianapolis, Ind., USA). At the time of testing, rats weighed ˜450 grams. Rats were individually housed in microisolator cages on dry bedding and were given ad libitum access to water and non-purified rat diet (pelletted; 8640 Harlan Teklad 22/5 Rodent Diet; Harlan Teklad, Madison, Wis., USA). The housing facility was maintained at 19-23° C., 30-70% relative humidity, and 12-hour light-dark cycle.
Test carbohydrates were evaluated in a randomized crossover design with a 7-day washout period between each meal glucose tolerance test (MGTT). Every rat received each treatment. Rats were routinely fed the non-purified diet. After overnight food deprivation, rats were orally fed test meals as a solution. Rats consumed the test meal within 1 minute. Blood samples were collected from the tail vein and immediately analyzed for plasma glucose by the glucose oxidase method utilizing a Precision G Blood Glucose Testing System (Medisense, Inc., Bedford, Mass., USA) before (0 minutes) and 30, 60, 90, 120, and 180 minutes postprandial. Rats had free access to water throughout the […].
Lodex 15® (maltodextrin) was obtained from Cerestar USA (Hammond, Ind., USA) with a dextrose equivalence (DE) of 15. Gamma-cyclodextrin (Wacker Cavamax W8) was obtained from Wacker Biochem Corp., Müchen, Germany. Carbohydrates were made into 500 g/L solutions with water. Each solution was heated in a microwave for 30 seconds to completely solubilize the carbohydrate solutions 1 hour before testing. Test meal volume was ˜1 mL and was adjusted such that each rat was delivered an equivalent carbohydrate challenge (1.0 g/kg body weight).

healthy adult subjects = test: Clinical study: breath hydrogen test for carbohydrate malabsorption; assay type: in vivo, human; details: 3 hours after 50 g oral; p=0.01
Experimental: Upon completion of baseline samples, the subject proceeded to the study site and consumed 16 fl oz of one of the two test beverages in no more than 10 minutes. After consumption of the study beverage, the subject resumed fasting. Time 0 was designated as the time at which the subject began drinking the study beverage. Additional venous blood samples and capillary plasma glucose finger sticks were collected at 15, 30, 45, 60, 90, 120, 150, and 180 […] minutes after the start of the study beverage. Additional breath samples were collected at 1, 2, 3, 4, 5, 6, 7, and 8 (±10 minutes) hours postprandially. Subjects were limited to the consumption of 8 fl oz of water during this three hour blood collection period. Approximately 10 mL of normal saline was injected into the vein after each blood draw in order to keep the line open and to replace the fluid lost from the blood collected.
After the 180-minute blood and breath samples were collected, the subject was allowed to leave the study site and collect the remaining breath samples (hours 4-8) on their own. During the remainder of the breath collection period, the subject was instructed to refrain from sleep and exercise. Subjects were to remain fasting with the exception of an optional one or two 8 fl oz cans of Ensure® Plus. […]
Breath hydrogen was analyzed to determine if the carbohydrate in the study product had been malabsorbed. […]

Breath hydrogen compared to maltodextrin (healthy adult subjects): significantly higher
Structure (SMILES): OC[C@H]1O[C@@H]2O[C@H]3[C@H](O)[C@@H](O)[C@@H](O[C@H]4[C@H](O)[C@@H](O)[C@@H](O[C@H]5[C@H](O)[C@@H](O)[C@@H](O[C@H]6[C@H](O)[C@@H](O)[C@@H](O[C@H]7[C@H](O)[C@@H](O)[C@@H](O[C@H]8[C@H](O)[C@@H](O)[C@@H](O[C@H]9[C@H](O)[C@@H](O)[C@@H](O[C@H]1[C@H](O)[C@H]2O)O[C@@H]9CO)O[C@@H]8CO)O[C@@H]7CO)O[C@@H]6CO)O[C@@H]5CO)O[C@@H]4CO)O[C@@H]3CO [Gamma-Cyclodextrin, Gamma-cyclodextrin]
Change from baseline in plasma glucose, Change@ 0 min ([1]; 0 min, 1.0 g/kg body weight oral): 0
Change from baseline in plasma glucose, Change@ 30 min ([1]; 30 min, 1.0 g/kg body weight oral): 52.0 ± 9.4
Plasma glucose, 30 min ([1]; 30 min postprandial, 1.0 g/kg body weight oral): 165.6 ± 10.6
Change from baseline in plasma glucose, Change@ 60 min ([1]; 60 min, 1.0 g/kg body weight oral): 48.1 ± 5.5
Plasma glucose, 60 min ([1]; 60 min postprandial, 1.0 g/kg body weight oral): 161.8 ± 7.8
Change from baseline in plasma glucose, Change@ 90 min ([1]; 90 min, 1.0 g/kg body weight oral): 38.0 ± 4.1
Plasma glucose, 90 min ([1]; 90 min postprandial, 1.0 g/kg body weight oral): 151.6 ± 7.0
Change from baseline in plasma glucose, Change@ 120 min ([1]; 120 min, 1.0 g/kg body weight oral): 39.4 ± 4.3
Plasma glucose, 120 min ([1]; 120 min postprandial, 1.0 g/kg body weight oral): 153.1 ± 6.5
Change from baseline in plasma glucose, Change@ 180 min ([1]; 180 min, 1.0 g/kg body weight oral): 28.9 ± 5.3
Plasma glucose, 180 min ([1]; 180 min postprandial, 1.0 g/kg body weight oral): 142.6 ± 6.4
Glucose concentration compared to consumption of maltodextrin ([1]; at 60 and 90 minutes, P<0.05): lower
Plasma glucose, 0 min ([1]; baseline before test meal, 1.0 g/kg body weight oral, mean ± spread): 113.6 ± 4.2
Glycemic response relative to a comparable amount of Lodex 15 ([1]; oral, 1.0 g/kg, after heat treatment of the solution): blunted glycemic response
